Laboratory results taken from PubChem BioAssay (NCI).
Several values for one entry are separate records, joined by “and”; a condition that tells them apart may be missing. Equal entries are not always repeated.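 Compound exposure: 48 hours, 5 concentrations, 96-well plates. Here, GI50 denotes the concentration required for 50% inhibition of growth. TGI: concentration producing complete growth inhibition.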

Tests used:
Assay in all cases: DTP human tumour cell line panel, 48 h
TK-10 renal = tested on: TK-10 renal
OVCAR-4 ovarian = tested on: OVCAR-4 ovarian
HCT-15 colon = tested on: HCT-15 colon
RPMI-8226 leukemia = tested on: RPMI-8226 leukemia
HCC-2998 colon = tested on: HCC-2998 colon
MOLT-4 leukemia = tested on: MOLT-4 leukemia
SF-268 CNS = tested on: SF-268 CNS
SF-295 CNS = tested on: SF-295 CNS
NCI/ADR-RES ovarian = tested on: NCI/ADR-RES ovarian
SK-MEL-5 melanoma = tested on: SK-MEL-5 melanoma

| Structure (SMILES) | TGI (TK-10 renal) | TGI (OVCAR-4 ovarian) | TGI (HCT-15 colon) | TGI (RPMI-8226 leukemia) | TGI (HCC-2998 colon) | TGI (MOLT-4 leukemia) | TGI (SF-268 CNS) | TGI (SF-295 CNS) | TGI (NCI/ADR-RES ovarian) | TGI (SK-MEL-5 melanoma) | GI50 (TK-10 renal) | GI50 (OVCAR-4 ovarian) | GI50 (HCT-15 colon) | GI50 (RPMI-8226 leukemia) | GI50 (HCC-2998 colon) | GI50 (MOLT-4 leukemia) | GI50 (SF-268 CNS) | GI50 (SK-MEL-5 melanoma) | GI50 (SF-295 CNS) |
| --- | --- | --- | --- | --- | --- | --- | --- | --- | --- | --- | --- | --- | --- | --- | --- | --- | --- | --- | --- |
| CC(=O)c1sc(-c2nc(C)c(C(=O)/C=C\c3ccc(/C=C\C(=O)c4sc(-c5nc(C)c(C(C)=O)s5)nc4C)cc3)s2)nc1C | > 100 µM | > 100 µM | > 100 µM | > 100 µM | > 100 µM | > 100 µM | > 100 µM | > 100 µM |  |  |  |  |  |  |  |  |  |  |  |
| COc1ccc(OC)c2c(/C=C/c3ccc(N(C)C)cc3)ccnc12 | > 10 µM | > 10 µM | > 10 µM |  | > 10 µM | > 10 µM | > 10 µM | > 10 µM | > 10 µM | > 10 µM |  |  |  |  |  |  |  |  |  |
| COC(=O)/C(C#N)=C1\CCC(O)N1 (stereo unspecified) | > 100 µM | > 100 µM |  | > 100 µM | > 100 µM | > 100 µM | > 100 µM | > 100 µM |  |  |  |  |  |  |  |  |  |  |  |
| COc1cc2ccc3c4cc(OC)c(OC(C)C)cc4cnc3c2cc1OC | > 100 µM | > 100 µM | > 100 µM | > 100 µM | > 100 µM | > 100 µM | > 100 µM | > 100 µM |  | > 100 µM |  |  |  |  |  |  |  |  |  |
| O=c1[nH]cnc2cccc(Cl)c12 | > 100 µM | > 100 µM | > 100 µM |  | > 100 µM | > 100 µM | > 100 µM | > 100 µM | > 100 µM | > 100 µM |  |  |  |  |  |  |  |  |  |
| C=C1C[C@]23CCC4C(C)(C)C(=O)CC[C@]4(C)C2C[C@H]1C(O)C3=O (stereo partly specified) |  | > 75 µM | > 75 µM | > 75 µM |  | > 75 µM | > 75 µM | > 75 µM |  | > 75 µM |  |  |  |  |  |  |  |  |  |
| CCCCOC(=O)NC(=O)c1cn(CCCOC(=O)NCCCCCCNC(=O)OCCCn2cc(C(=O)NC(=O)OCCCC)c(=O)[nH]c2=O)c(=O)[nH]c1=O | > 100 µM | > 100 µM | > 100 µM | > 100 µM | > 100 µM |  | > 100 µM | > 100 µM |  | > 100 µM |  |  |  |  |  |  |  |  |  |
| O=C1CC2C(=O)N(Cc3ccccc3)C1C=C2S(=O)(=O)c1ccccc1 (stereo unspecified) | > 100 µM | > 100 µM |  |  | > 100 µM | > 100 µM | > 100 µM | > 100 µM |  | > 100 µM |  |  |  |  |  |  |  |  |  |
| COC(=O)/C(C=O)=C/Sc1ccccc1 | > 100 µM | > 100 µM | > 100 µM | > 100 µM | > 100 µM | > 100 µM | 33 µM | > 100 µM |  | 85.2 µM |  |  |  |  |  |  |  |  |  |
| Nc1ccn(C2(CO)C=C(CO)C(O)C2O)c(=O)n1 (stereo unspecified) | > 25.8 µM | > 25.8 µM | > 25.8 µM | > 25.8 µM | > 25.8 µM | > 25.8 µM | > 25.8 µM |  |  | > 25.8 µM |  |  |  |  |  |  |  |  |  |
| CC1=NN(C(=O)CC(=O)N(C(=O)c2ccccc2Cl)c2ccc(C)cc2)C(=O)C1N=Nc1ccc([N+](=O)[O-])cc1 (stereo unspecified) | > 100 µM | > 100 µM | > 63.5 µM | > 70.3 µM | > 100 µM | > 100 µM | > 100 µM | > 100 µM |  | > 100 µM |  |  |  |  |  |  |  |  |  |
| O=C(Nc1cc(Cl)ccc1Cl)C(=O)C(c1cnc2ccccc2n1)[N+](=O)[O-] (stereo unspecified) | > 100 µM | > 100 µM | > 100 µM | > 100 µM | > 100 µM | > 100 µM | > 100 µM | > 100 µM |  | > 100 µM |  |  |  |  |  |  |  |  |  |
| CC(C)CCCC(C)[C@H]1CCC2[C@H]3C(CC[C@@]21C)[C@@]1(C)CCC=C[C@]12C[C@@H]2[C@@H]3O (stereo partly specified) | > 100 µM | > 100 µM | > 100 µM | > 100 µM | > 100 µM | > 100 µM | > 100 µM | > 100 µM |  | > 100 µM |  |  |  |  |  |  |  |  |  |
| Cc1cc(NS(=O)(=O)c2ccc(Nc3c4ccccc4nc4c(C(=O)NCCN(C)C)cccc34)cc2)no1 | > 100 µM | 57.7 µM | > 100 µM |  | 27 µM |  | 16.4 µM | 47.5 µM |  | 11.8 µM |  |  |  |  |  |  |  |  |  |
| COc1cccc(-n2c3nc(=O)n(C)c(=O)c-3nc3ccccc32)c1 | > 100 µM | 25.2 µM | 66.3 µM | > 100 µM | 38.9 µM | 40.6 µM | 53.9 µM | 29.2 µM |  | 13.8 µM |  |  |  |  |  |  |  |  |  |
| O=c1[nH]c2cc(Cl)ccc2nc1/C(=N\O)C(O)c1ccc(Cl)cc1Cl (stereo unspecified) |  | > 100 µM | > 100 µM | > 100 µM | > 100 µM | > 100 µM | > 100 µM | > 100 µM |  | > 100 µM |  |  |  |  |  |  |  |  |  |
| N.N.N.N.[Cl-].[Co+3].[N-]=[N+]=[N-].[N-]=[N+]=[N-] | > 100 µM | > 100 µM | > 100 µM | > 100 µM | > 100 µM | > 100 µM | > 100 µM | > 100 µM |  | > 100 µM | > 100 µM | > 100 µM | > 100 µM | > 100 µM | > 100 µM | 38.6 µM | 81.6 µM | > 100 µM | > 100 µM |
| C[C@@]12CCCc3coc(c31)C(=O)c1cc3c(cc12)C(=O)C=CC3=O | > 1 µM and 35.8 µM | > 1 µM and 28.9 µM | > 1 µM and 36.7 µM | > 1 µM and 35 µM | > 1 µM and 69.7 µM | > 1 µM and 6.16 µM | > 1 µM | > 1 µM |  | > 1 µM and 30.9 µM | > 1 µM | > 1 µM | > 1 µM | > 1 µM | > 1 µM | > 1 µM |  | > 1 µM |  |
| C=CCNC(=O)N(CCC)CCCCC(NC(C)=O)C(=O)NCc1ccccc1 (stereo unspecified) | > 100 µM | > 100 µM | > 100 µM | > 100 µM | > 100 µM | > 100 µM | > 100 µM | > 100 µM |  | > 100 µM |  |  |  |  |  |  |  |  |  |
| C1C[OH+]CCNCC[OH+]CC[OH+]CCN1.[Cl-].[Pt+4] | > 100 µM | > 100 µM | > 100 µM | > 100 µM | > 100 µM | > 100 µM | > 100 µM | > 100 µM |  | > 100 µM | > 100 µM | > 100 µM | > 100 µM | > 100 µM | > 100 µM | > 100 µM | > 100 µM | > 100 µM | > 100 µM |
| COC(=O)OCC1OC(N2C(=O)NC(=O)C(Br)C2N=[N+]=[N-])CC1OC(=O)OC (stereo unspecified) | > 100 µM | > 100 µM | > 100 µM | > 100 µM | > 100 µM |  | > 100 µM | > 100 µM |  | > 100 µM |  |  |  |  |  |  |  |  |  |
